≈ marks a conversion by molar mass, not a printed value. Where “and” joins values, the source holds several entries; their conditions need not be identical. Equal entries are not always repeated.
Legend:
Assay type in all cases: physicochemical
[1] = Stress stability test for solid state transformation; conditions: 60° C., 60° C./75% relative humidity and 80° C./75% relative humidity; 4 weeks
Experimental: Polymorph Form C, Form X and mixtures of the two polymorphic forms C+X have all been tested at different conditions of temperature and relative humidity for signs of solid state transformation. The stress stability test was carried out at three sets of conditions: 60° C., 60° C./75% relative humidity and 80° C./75% relative humidity, and samples were analyzed after 1, 2 and 4 weeks, i.e. after 7, 14 and 28 days.
One 1.8 ml amber screw top vial (27267-U, Supelco) containing between 50 and 100 mg {4-[(1R,3S)-3-((R)-1-Naphthalen-1-yl-ethylamino)-cyclopentyl]-phenoxy}-acetic acid was tested per individual set of conditions. The vials to be tested at 60° C. were closed with a PTFE lined black polypropylene solid cap (27416, Supelco) and placed in a thermostated heating cabinet. The vials to be tested at 60° C./75% relative humidity and 80° C./75% relative humidity were placed uncapped in a desiccator containing a saturated NaCl solution. The desiccator was subsequently placed in a thermostatted heating cabinet.
The samples were analyzed at 1, 2 and 4 weeks for • 1. Visual appearance • 2. HPLC assay and impurities • 3. Polymorph characterization

[2] = Thermo gravimetric analysis (TGA); conditions: TGA trail of Graph 4b (Form X), ±2° C.
Experimental: TGA experiments were conducted using a Perkin Elmer Pyris 1 TGA instrument. About 10-20 mg of sample was loaded into a ceramic pan for the measurements. The sample temperature was ramped from 25 to 350° C. at 10° C./min. Nitrogen was used as the purge gas at a flow rate of 40 mL/min.

[3] = Aqueous solubility as a function of pH; conditions: for solubility at 24 h: 25 °C, thermodynamic from solid; for solubility at 24 h / Solubility: room temperature (25° C.), shaken 24 hours
Experimental: In addition to the characterizing analyses by XRPD, XRC, DSC, ATR-FTIR and SS NMR discussed hereinabove, the solubility of {4-[(1R,3S)-3-((R)-1-Naphthalen-1-yl-ethylamino)-cyclopentyl]-phenoxy}-acetic acid Form C and X has been determined as function of pH and in MeOH.
The aqueous solubility of Form C and Form X was determined as a function of pH at 25° C. in 0.1N HCl (pH 1.0) and in Sorensen phosphate buffers at pH 2.0, 4.0, 6.0 and 8.0. For each pH value two individual determinations were made. Form C or Form X was weighed out (11 mg for pH 1, 4 mg for pH 2-8) in scintillation vials and 4 ml 0.1N HCl or buffer was added. The vials were shaken for 24 hours at 25° C. After 24 hours it was checked that the vial still contained undissolved material. The suspensions were filtered through a 0.45 μm filter, which was first saturated with app. 0.5 ml filtrate. The resulting filtrates were diluted and analyzed by HPLC vs. a standard curve.

| 4 week stress stability test without any solid state transformation [1] | stable towards degradation at temperatures below [2] | solubility at 24 h ([3]; 0.1N HCl, pH 1, simulated gastric fluid, pH 1.0 (0.1N HCl)) [µg/mL] | solubility at 24 h ([3]; Sorensen phosphate buffer, pH 2, aqueous buffer, pH 2.0 (Sorensen phosphate buffer)) [µg/mL] | solubility at 24 h ([3]; Sorensen phosphate buffer, pH 4, aqueous buffer, pH 4.0 (Sorensen phosphate buffer)) [µg/mL] | solubility at 24 h ([3]; Sorensen phosphate buffer, pH 6, aqueous buffer, pH 6.0 (Sorensen phosphate buffer)) [µg/mL] | solubility at 24 h ([3]; Sorensen phosphate buffer, pH 8, aqueous buffer, pH 8.0 (Sorensen phosphate buffer)) [µg/mL] | solubility compared to Form C ([3]; room temperature) | Solubility ([3]; pH 1.0 (0.1N HCl)) [µg/mL] | Solubility ([3]; pH 2.0 (Sorensen phosphate buffer)) | Solubility ([3]; pH 4.0 (Sorensen phosphate buffer)) | Solubility ([3]; pH 6.0 (Sorensen phosphate buffer)) [µg/mL] | Solubility ([3]; pH 8.0 (Sorensen phosphate buffer)) [µg/mL] | SMILES |
| --- | --- | --- | --- | --- | --- | --- | --- | --- | --- | --- | --- | --- | --- |
| passed | below 255 °C | – | – | – | – | – | – | – | – | – | – | – | C[C@@H](N[C@H]1CC[C@@H](c2ccc(OCC(=O)O)cc2)C1)c1cccc2ccccc12 [{4-[(1R,3S)-3-((R)-1-Naphthalen-1-yl-ethylamino)-cyclopentyl]-phenoxy}-acetic acid] |
| passed | – | 1240 (≈ 3190 µM) | 551 (≈ 1410 µM) | 86 (≈ 221 µM) | 78 (≈ 200 µM) | 80 (≈ 205 µM) | higher | – | – | – | – | – | C[C@@H](N[C@H]1CC[C@@H](c2ccc(OCC(=O)O)cc2)C1)c1cccc2ccccc12 [Form X, {4-[(1R,3S)-3-((R)-1-Naphthalen-1-yl-ethylamino)-cyclopentyl]-phenoxy}-acetic acid] |
| passed | – | – | – | – | – | – | – | 1225 (≈ 3150 µM) | 394 µg/mL and 329 µg/mL | 52 µg/mL and 53 µg/mL | 43 (≈ 110 µM) | 55 (≈ 141 µM) | C[C@@H](N[C@H]1CC[C@@H](c2ccc(OCC(=O)O)cc2)C1)c1cccc2ccccc12 [Form C, {4-[(1R,3S)-3-((R)-1-Naphthalen-1-yl-ethylamino)-cyclopentyl]-phenoxy}-acetic acid] |

Source: patent US8946474B2, “Polymorphic form of a calcimimetic compound” (LEO Pharma A/S, priority 2010, dated 2015)
